# Test results as given in ChEMBL document CHEMBL3507680, “University of Dundee, Gates Library screen for HepG2 cell viability”.
# Test: Human HepG2 cell viability assay in 384 well format
# Assay type: toxicity, cell-based
# Parameters: dose 125 nL, time 70.5 hour; cytotoxicity at 70.5 h: concentration not given beside the values
# Conditions: HepG2 cells, read-out: Inhibition
row,Compound,cytotoxicity at 70.5 h [%]
1,CCc1nnc2n1CCN(C(=O)c1cc3ccc(F)cc3nc1C)C2,-3.67
2,Cc1nccc(-c2ccccc2)c1C(=O)N1CCC2(CCCO2)CC1,2.47
3,CCc1nc(CN(C)Cc2nnc(-c3cccs3)o2)cs1,-3.41
4,CC(C)OCc1noc(C2CCCOC2)n1 (configuration not stated),-10.6
5,CCN(CC)C(=O)CCNc1cncc(-n2nc(C)cc2C)n1,-1.19
6,CC(C)c1nn(C)c(N(C)C)c1CNCc1ccnn1C,18
7,Cc1ncccc1NC(=O)[C@@H]1C[C@@H]2CCN(Cc3cccs3)C[C@H]2O1,-12.3
8,COc1ccccc1CC(=O)N1CCCC(n2nc(C)cc2C)C1 (configuration not stated),2.04
9,O=C(c1ccccc1C1CCNC1)N1CCC(N2CCC(O)CC2)CC1 (configuration not stated),-12.4
10,CCCN(C(=O)c1ccncc1)c1nc2c(s1)CCc1c-2cnn1C,18.2
11,COc1ccccc1CNc1ncc(-c2cc(C)no2)c(C(C)C)n1,-9.02
12,Cc1nn(C)c(C)c1S(=O)(=O)N1C[C@@H]2C[C@@H](C)O[C@@H]2C1,-9.76
13,N#Cc1ccc(CSCCN2CCOCC2)cc1,-5.15
14,NC(=O)c1cccc2nc([C@H]3CCN(Cc4ccccc4F)C3)[nH]c12,-3.45
15,CC(C)Cc1nnc2sc(-c3cc(C(C)C)n[nH]3)nn12,12.3
16,NC(=O)N1C[C@H](NC(=O)c2cscn2)[C@@H]2OCCC[C@@H]21,-6.33
17,COCCc1noc(-c2ccc(-c3ccc(N)nc3)nc2)n1,-2.31
18,Cn1nc(CNC(=O)C2CCN(S(C)(=O)=O)CC2)cc1C1CC1,-3.55
19,CC(=O)Nc1ccc(C(=O)Nc2cnc3n2CCCC3)c(C)c1,-1.77
20,CS(=O)(=O)NCC1CCCN(C(=O)c2ccc(F)c(F)c2)C1 (configuration not stated),-1.98
21,CCc1cccc(C)c1NC(=O)c1ccccc1N(C)S(C)(=O)=O,26.1
22,CN(C)CC1CN(Cc2ccsc2)Cc2nccn2C1 (configuration not stated),-0.272
23,NC(=O)C1CCN(Cn2nc(-c3ccc(F)cc3)oc2=O)CC1,5.9

row,Compound,cytotoxicity at 70.5 h [%]
1,Cc1ccsc1CNc1ccccc1C(=O)N1CCNC(=O)C1,16.9
2,O=C(CN1CC(c2ccccc2)CC1=O)N1CCN(c2nccs2)CC1 (configuration not stated),-6.92
3,O=C(NC[C@H]1OC[C@@H](NCc2ccccn2)[C@@H]1O)N1CCOCC1,-10.1
4,O=C(NCCn1ccc(-c2ccccn2)n1)C1CC1,-4.52
5,Cn1cc(N2CCC3(CCN(C(=O)c4cccn4C)C3)C2=O)cn1 (configuration not stated),-6.34
6,O=C(NCC1(O)CCOc2ccccc21)Nc1ccccc1 (configuration not stated),1.09
7,Cc1noc(C)c1S(=O)(=O)N1CCC(Oc2cccnn2)CC1,-0.269
8,COc1ccc(CCNC(=O)C(C)Nc2cccc(C)c2C)cc1 (configuration not stated),-4.88
9,Cc1cc(C)n(-c2ccc3nnc(C)n3n2)n1,18
10,CN(C)C(=O)c1ccc2c(c1)N(C)C(CC(=O)NCc1ncc[nH]1)CO2 (configuration not stated),-5.15
11,COCCC(=O)N1C[C@H]2CN(Cc3cccc(C)c3)C(=O)[C@H]2C1,-10.7
12,Cc1cc(CN2CCC(C3CCN(CCc4ccccc4)CC3)C2)[nH]n1 (configuration not stated),-0.097
13,CC1C(=O)Nc2cccnc2N1S(=O)(=O)c1ccc(C#N)c(Cl)c1 (configuration not stated),-6.2
14,c1csc(-c2nc(CN3CCOC(Cn4cccn4)C3)co2)c1 (configuration not stated),-8.17
15,CCN(C(=O)c1ccc(-c2ccccc2)nc1C)C1CC(=O)NC1=O (configuration not stated),-5.68
16,Cc1nc(C(C)NC(=O)c2cn(CCC3CCCCC3)nn2)n[nH]1 (configuration not stated),-23.9
17,CS(=O)(=O)N1CCOCC2(CCN(C(=O)c3ccco3)CC2)C1,-8.61
18,CSCC(=O)Nc1ncn(Cc2cccc(Br)c2)n1,-8.51
19,CN1CC2(CCCN(c3cnccn3)C2)OC1=O (configuration not stated),-9.73
20,O=C(c1ccc(-c2cccc3c2CCNC3)o1)N1CCCC1,-9.64
21,CN1CCN(c2ccccc2CNC(=O)Cc2ccccc2F)CC1,-5.79
22,CC(C)CCN1C[C@H]2C[C@H](C(=O)Nc3ccccc3)[C@@H](C1)O2,-21.4
23,Cc1cc(C)n(C2CCCN(C(=O)COCC(F)(F)F)C2)n1 (configuration not stated),-22.5

row,Compound,cytotoxicity at 70.5 h [%]
1,CC(C)N1CCCCC1c1nc(N(C)C)ncc1I (configuration not stated),23.9
2,Cc1cnc(NC(=O)NCCOc2ncccc2Cl)s1,-4.99
3,CCCNC(=O)N1CCC(c2nnc(Cn3cccn3)n2C2CC2)CC1,-10.5
4,CC(C)NC(=O)c1cc(Br)cc(S(=O)(=O)N2CCOCC2)c1F,-0.805
5,CN(C)c1cc(C(=O)N2CCN(c3cnccn3)CC2)ccn1,-13.9
6,Cc1ncc2c(n1)CCN(C(C(N)=O)c1ccccc1)C2 (configuration not stated),-2.66
7,Cc1nc(C(=O)N2CCCC2c2cncc(CN3CCCC3)n2)co1 (configuration not stated),-1.27
8,O=C(C[C@H]1[C@H]2CN(Cc3ccncc3)C[C@@H]12)N1CCCC1,20.1
9,Cc1ccc(CN(C(=O)NCC2CCS(=O)(=O)C2)C2CC2)o1 (configuration not stated),-7.11
10,Cc1cc(N2CCC(Cc3cccnc3)CC2)ncn1,23.3
11,CCn1nc(CC(C)C)cc1C(=O)NCc1c(C)cc(C)nc1OC,2.04
12,Cc1occc1C(=O)N1CCC2(CCN(Cc3nccs3)CC2)C1,-5.43
13,COCCNc1nc2c(c(NCc3cnc(C)cn3)n1)CCNCC2,-4.71
14,C=C(C)COc1cccc(CNC(COC)c2ccnn2C)c1 (configuration not stated),2.53
15,CCCc1nc(C(C)(C)NC(=O)C2CC(=O)N(C3CCCC3)C2)no1 (configuration not stated),-11.9
16,CS(=O)(=O)NCC1CCCN(Cc2ccccc2F)C1 (configuration not stated),-7.12
17,Cc1cc(C(=O)N2CCCC(c3cc(=O)nc4n3CCC4)C2)on1 (configuration not stated),-6.58
18,Cc1nn(CC(F)F)c2c1c(C(F)F)cc(=O)n2CC(=O)O,23.6
19,CC(C)OC(=O)N1CCC(Cc2cccc(C(N)=O)c2)C1 (configuration not stated),35.3
20,CNC(=O)Cc1csc(NC(=O)C2CSCCC(=O)N2)n1 (configuration not stated),14.7
21,CN(C)S(=O)(=O)NC1CCCc2c1cnn2-c1ccc(C(C)(C)C)cc1 (configuration not stated),-2.4
22,CC(C)c1noc(C(C)N2CCN(Cc3nnc(C4CC4)o3)CC2)n1 (configuration not stated),-3.65
23,CC(=O)Nc1ncc(S(=O)(=O)Nc2cccc(O)c2)s1,-13.4

row,Compound,cytotoxicity at 70.5 h [%]
1,CCc1noc(CN(C)CC(c2cccs2)N2CCOCC2)n1 (configuration not stated),-1.63
2,CCc1nnc2n1CCN(C(C(N)=O)c1ccc(F)cc1)C2 (configuration not stated),26.6
3,CNC(=O)NC(=O)C(C)N1CCCc2cc(OC)ccc2C1 (configuration not stated),-13.9
4,CCS(=O)(=O)N1CCC(n2nc(-c3cc(C)oc3C)ccc2=O)CC1,24.5
5,Cc1nnc(SCC(=O)N2CCC3(CC2)c2ccccc2CC3O)o1 (configuration not stated),20.7
6,O=C(Cn1cccnc1=O)NCc1cccnc1OCC(F)(F)F,2.5
7,O=C(c1ccc(F)cc1)N1C[C@@H]2COC[C@]2(COc2cccnc2)C1,14.6
8,Cc1cc(O)ccc1-c1cc(-c2cnn(C)c2C2CC2)c(C#N)c(N)n1,19.9
9,CC(C)N1CCO[C@H]2CN(S(=O)(=O)c3ccc(C#N)cc3)C[C@H]21,-11.6
10,Cc1cc(C)cc(OCCN(C)C2CCOC2=O)c1 (configuration not stated),1.42
11,CCC(C)C(=O)NCc1c(C)nn(C)c1N1CCCN(C)CC1 (configuration not stated),1.79
12,CN(C)CCN1C[C@@H]2CN(C(=O)c3ccsc3)C[C@@H]2C1=O,-2.41
13,Nc1nc(N2CCCCCC2)ncc1C(=O)NCc1ccc(F)c(Cl)c1,-10.8
14,CCCC(C(=O)NC1CCN(S(C)(=O)=O)CC1)c1ccccc1 (configuration not stated),-4.97
15,c1ccc(CCNc2ncnc3c2CCN(Cc2c[nH]cn2)CC3)cc1,-0.00958
16,CCN(C(=O)c1cccc2c1OCO2)c1ccc(Br)cn1,-7.06
17,O=S(=O)(C1CC1)N1CCC2(CCCN(Cc3ccccn3)C2)C1 (configuration not stated),-0.34
18,O=C(NCC1(c2ccc(F)cc2)CC1)N1CCC2(CCOC2)C1 (configuration not stated),13.9
19,NC(=O)CCC1CCCN(c2ncnc3c2Cc2ccccc2OC3)C1 (configuration not stated),-4.64
20,COC(=O)NC1(C(=O)NCc2ccc(-c3ccn[nH]3)cc2)CCCC1,-0.909
21,CSC1(CNC(=O)NC(C)c2ccc(F)c(F)c2)CCOCC1 (configuration not stated),-1.76
22,O=C(CCC(=O)Nc1ccccc1)NCC(=O)c1ccc(F)cc1F,5.75
23,O=C(NCC1CCCO1)c1ccc(S(=O)(=O)NCCc2cn[nH]c2)cc1 (configuration not stated),-4.87

row,Compound,cytotoxicity at 70.5 h [%]
1,Cc1ccc(N2CCC3(CCCN(C(=O)c4cccnc4)C3)C2)nn1 (configuration not stated),18.8
2,COc1cnc(CN2CC(=O)N(c3ccc(C)cc3)CC2C)cc1O (configuration not stated),-5.7
3,O=C(NCc1nc(C2CCCCC2)no1)C1CC(=O)N(C2CCCC2)C1 (configuration not stated),-0.128
4,Cc1ccc(-c2cc(C)nc(C3CCCN3S(C)(=O)=O)n2)cc1 (configuration not stated),-8.04
5,O=C(CCc1ccco1)Nc1cccc(S(=O)(=O)C(F)F)c1,-9.11
6,COc1cccc(COC(C)C(=O)NC2CCN(CC(N)=O)CC2)c1 (configuration not stated),-7.36
7,CCCNC(=O)c1cc(-c2cnc(N3CCCC3)nc2)cn1C,3.66
8,Cc1nc(NC(=O)NCCCN2CCC(C(N)=O)CC2)sc1C,-19.5
9,COc1ccc(CC(=O)N2CCCC(n3cc(C)cn3)C2)c(OC)c1 (configuration not stated),-6.34
10,CC(C)(O)CN1CCN(C(=O)c2cccc(CC#N)c2)CC1,1.57
11,COc1cc(C(=O)N2CCCC(c3cc(C)[nH]n3)C2)ccc1C (configuration not stated),19.1
12,Cc1ccc(N(C)C2CCCN(C(=O)Nc3ccc(F)cc3F)C2)cc1 (configuration not stated),-2.7
13,CCN1CCC2(CC1)CC(Nc1ncccn1)CO2 (configuration not stated),-1.36
14,Cc1cnn(CC2CN(CC(=O)NCCc3cccs3)CCO2)c1 (configuration not stated),-2.04
15,Cc1ncsc1CCC(=O)NCc1csc(N2CCCC2)n1,-6.59
16,NC(=O)C1CCN(CCc2ccc(NCc3ccoc3)cc2)CC1,-5.59
17,O=C1NCC(C(=O)N(Cc2cccc(Br)c2)C2CC2)N1 (configuration not stated),26.3
18,Cc1nc(C)n(CC2CCCN(CCC(=O)NC3CCCCC3)C2)n1 (configuration not stated),-3.01
19,O=C(O)COc1ccc(Cl)cc1CN1CCC2(CCOCC2)CC1,2.03
20,Cn1nnc2c1C(COCC1CC1)CN(C(=O)[C@H]1CCCO1)C2 (some centres not stated),0
